Measurements as given in PubChem BioAssay (NCI).
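96-well plates; 48 h exposure; 5 concentrations. Endpoints by linear interpolation between flanking doses. Not reached: highest tested concentration assigned. TGI denotes the concentration required for complete inhibition of growth.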

Experiments:
Test in all cases: NCI tumour cell line growth inhibition, 48 h
CCRF-CEM leukemia = tested on: CCRF-CEM leukemia
OVCAR-5 ovarian = tested on: OVCAR-5 ovarian
SW-620 colon = tested on: SW-620 colon
DMS 273 small cell lung = tested on: DMS 273 small cell lung
NCI-H226 lung = tested on: NCI-H226 lung
HOP-92 NSCLC = tested on: HOP-92 NSCLC
OVCAR-8 ovarian = tested on: OVCAR-8 ovarian
UACC-257 melanoma = tested on: UACC-257 melanoma
SNB-78 CNS = tested on: SNB-78 CNS
A549 NSCLC = tested on: A549 NSCLC
MDA-MB-435 = tested on: MDA-MB-435

Structure (SMILES): CC(=O)C(=Cc1cn(C)c(=O)n(C)c1=O)C(C)=O
- TGI (CCRF-CEM leukemia): 294 µM
- TGI (OVCAR-5 ovarian): 235 µM
- TGI (SW-620 colon): 302 µM
- TGI (DMS 273 small cell lung): 225 µM
- TGI (NCI-H226 lung): 293 µM
- TGI (HOP-92 NSCLC): 8.16 µM
- TGI (OVCAR-8 ovarian): 324 µM
- TGI (UACC-257 melanoma): 177 µM
- TGI (SNB-78 CNS): 600 µM
- TGI (A549 NSCLC): 565 µM

Structure (SMILES): NC(=O)CCC(N=c1c2ccccc2n(O)c2ccccc12)C(=O)O (stereo not given)
- TGI (CCRF-CEM leukemia): > 100 µM
- TGI (OVCAR-5 ovarian): > 100 µM
- TGI (SW-620 colon): > 100 µM
- TGI (DMS 273 small cell lung): > 100 µM
- TGI (NCI-H226 lung): > 100 µM
- TGI (OVCAR-8 ovarian): > 100 µM
- TGI (SNB-78 CNS): > 100 µM
- TGI (A549 NSCLC): > 100 µM

Structure (SMILES): Cc1ccccc1NC(=O)CSc1nnc(-c2ccc(N=Cc3ccc(Cl)cc3)cc2)o1
- TGI (CCRF-CEM leukemia): > 100 µM
- TGI (SW-620 colon): > 100 µM
- TGI (DMS 273 small cell lung): > 100 µM
- TGI (NCI-H226 lung): > 100 µM
- TGI (OVCAR-8 ovarian): > 100 µM
- TGI (UACC-257 melanoma): > 100 µM
- TGI (SNB-78 CNS): > 100 µM
- TGI (A549 NSCLC): > 100 µM

Structure (SMILES): N#Cc1nc(CCc2nc(C#N)c(N)o2)oc1N
- TGI (CCRF-CEM leukemia): > 10 µM
- TGI (OVCAR-5 ovarian): > 10 µM
- TGI (SW-620 colon): > 10 µM
- TGI (MDA-MB-435): > 10 µM
- TGI (NCI-H226 lung): > 10 µM
- TGI (HOP-92 NSCLC): > 10 µM
- TGI (OVCAR-8 ovarian): > 10 µM
- TGI (UACC-257 melanoma): > 10 µM
- TGI (A549 NSCLC): > 10 µM

Structure (SMILES): Clc1ccc2c(NCCCCCCNc3ccnc4cc(Cl)ccc34)ccnc2c1
- TGI (CCRF-CEM leukemia): 7.53 µM
- TGI (OVCAR-5 ovarian): 17.9 µM
- TGI (SW-620 colon): 3.78 µM
- TGI (DMS 273 small cell lung): 11.7 µM
- TGI (MDA-MB-435): 12.5 µM
- TGI (NCI-H226 lung): 25.3 µM
- TGI (HOP-92 NSCLC): 5.8 µM
- TGI (OVCAR-8 ovarian): 4.9 µM
- TGI (UACC-257 melanoma): 14.6 µM
- TGI (SNB-78 CNS): 3.87 µM
- TGI (A549 NSCLC): 20.7 µM

Structure (SMILES): CCOC(=O)c1c(-c2ccc(OC)cc2)ccn1C
- TGI (CCRF-CEM leukemia): > 10 µM
- TGI (OVCAR-5 ovarian): > 10 µM
- TGI (SW-620 colon): > 10 µM
- TGI (MDA-MB-435): > 10 µM
- TGI (NCI-H226 lung): > 10 µM
- TGI (HOP-92 NSCLC): > 10 µM
- TGI (OVCAR-8 ovarian): > 10 µM
- TGI (UACC-257 melanoma): > 10 µM
- TGI (A549 NSCLC): > 10 µM

Structure (SMILES): CC1=C(CO)C(=O)OC(C(C)C2CCC3C4CC5OC56C(O)C(N5CC5)=CC(=O)C6(C)C4CCC23C)C1 (stereo not given)
- TGI (CCRF-CEM leukemia): 7.45 µM
- TGI (OVCAR-5 ovarian): 31.2 µM
- TGI (SW-620 colon): 6.4 µM
- TGI (DMS 273 small cell lung): 17.9 µM
- TGI (NCI-H226 lung): 29.1 µM
- TGI (HOP-92 NSCLC): 19.3 µM
- TGI (OVCAR-8 ovarian): 5.78 µM
- TGI (UACC-257 melanoma): 24.4 µM
- TGI (SNB-78 CNS): 46.9 µM
- TGI (A549 NSCLC): 29.6 µM
